Data on 10 compounds can be found in paper PMC3542813, “High-throughput screening with the Eimeria tenella CDC2-related kinase2/cyclin complex EtCRK2/EtCYC3a” (Microbiology, 2012).

One series concerns the target EtCRK2/XlRINGO (Eimeria tenella, UniProt Q6R8F0). Put plainly: biochemical. From the text: Therefore, we tested XlRINGO as an activator of EtCRK2.
(§1) In order to discover specific inhibitors of EtCRK2 we performed an in vitro screening campaign supported by an in silico hit enrichment (Fig. 4).

The target of a further series is EtCRK2/EtCYC3a (Eimeria tenella, UniProt Q6R8F0). Put plainly: TR-FRET kinase assay, EtCRK2 activated by EtCYC3a. Type of series: biochemical.
Description: as §1
A general note: Time-resolved FRET reads energy transfer from a long-lived donor to a nearby acceptor.

Another series addresses HsCDK2/HsCYCA (Homo sapiens, UniProt P24941). Put plainly: TR-FRET kinase assay, human CDK2 activated by human cyclin A. Type of series: biochemical. To be noted: for IC50 / Ki: mean±SD, n = 3–6.
Series [1] has as its target Eimeria tenella cyclin-like 3a (EtCYC3a), maltose binding protein fusion (Eimeria tenella).
The subject of series [2] is E. tenella schizont development. Also on record: method as in Engels et al., 2010. The conditions noted are these: ref Engels et al., 2010, cited from earlier work.
Another series relates to EtCRK2. Details: method as in Engels et al., 2010. To be noted: ref Engels et al., 2010, cited from earlier work.
The next series has as its system host cell. Also on record: method as in Engels et al., 2010. The conditions noted are these: ref Engels et al., 2010; cited from earlier work.
Where [3] appears, read: standard CDK inhibitors, mean±SD, n = 3–6, read-out: IC50 EtCRK2/XlRINGO.
Where [4] appears, read: standard CDK inhibitors, mean±SD, n = 3–6, read-out: Ki EtCRK2/XlRINGO.
The mark [5] stands for this setting: standard CDK inhibitors, mean±SD, n = 3–6, read-out: IC50 EtCRK2/EtCYC3a.
The mark [6] stands for this setting: standard CDK inhibitors, mean±SD, n = 3–6, read-out: Ki EtCRK2/EtCYC3a.
Setting [7] is: lead structures, mean±SD, n = 3–6, read-out: IC50 EtCRK2/ XlRINGO.
[8] abbreviates: lead structures, mean±SD, n = 3–6, read-out: Ki EtCRK2/ XlRINGO.
The mark [9] stands for this setting: lead structures, mean±SD, n = 3–6, read-out: IC50 EtCRK2/ EtCYC3a.
The mark [10] stands for this setting: lead structures, mean±SD, n = 3–6, read-out: Ki EtCRK2/ ETCYC3a.

Where two headings read alike, the source gives them in different places. Where only a bound is given, the exact number is not on record here.

For the compound `O=C1Cc2c([nH]c3ccc([N+](=O)[O-])cc23)-c2ccccc2N1` [Alsterpaullone, 9-nitro-7,12-dihydro-5H-indolo[3,2-d][1]benzazepin-6-one], the results for the IC50 on EtCRK2/XlRINGO (setting [3]) and at EtCRK2/EtCYC3a (setting [5]) were 220 ± 60 nM and 640 ± 340 nM, respectively. Besides, the Ki on EtCRK2/XlRINGO (setting [4]) was determined as 70 ± 2 nM; on EtCRK2/EtCYC3a (setting [6]), 210 ± 40 nM.

Take `CC(C)C(CO)Nc1nc(Nc2cccc(Cl)c2)c2ncn(C(C)C)c2n1` (centres unmarked) [Purvalanol A, 2-[[6-[(3-chlorophenyl)amino]-9-isopropyl-purin-2-yl]amino]-3-methyl-butan-1-ol]: the IC50 at HsCDK2/HsCYCA (standard CDK inhibitors) amounted to 140 ± 40 nM; on EtCRK2/XlRINGO it was 800 ± 110 nM; at EtCRK2/EtCYC3a (setting [5]) it was 1030 ± 180 nM. The Ki is 40 ± 1 nM on HsCDK2/HsCYCA (standard CDK inhibitors), 80 ± 10 nM on EtCRK2/XlRINGO and 360 ± 130 nM at EtCRK2/EtCYC3a (setting [6]).

Turning to `O=C1Nc2ccc(S(=O)(=O)O)cc2/C1=C1/Nc2ccccc2C1=O` [Indirubin-5′-sulfonic acid, (3Z)-2-oxo-3-(3-oxo-1H-indol-2-ylidene)-1H-indole-5-sulfonic acid], the IC50 at EtCRK2/XlRINGO (setting [3]) worked out at 670 ± 180 nM; at EtCRK2/EtCYC3a (setting [5]), 940 ± 310 nM. Besides, the Ki is 170 ± 30 nM on EtCRK2/XlRINGO (setting [4]) and 240 ± 100 nM at EtCRK2/EtCYC3a (setting [6]).

Turning to “Eimeria tenella CDC2-related kinase 2 (EtCRK2), His-tagged (enzyme)”, the specific activity of EtCRK2 in the EtCRK2/EtCYC3a complex, TR-FRET kinase assay with fluorescein-labelled histone H1 substrate in series [1] turned out to be 0.15 µmol/min/mg.

Regarding `Cc1cc(O)c2c(c1O)C(=O)C(Cl)=C(Cl)C2=O` [BES130131, 2,3-dichloro-5,8-dihydroxy-6-methyl-naphthalene-1,4-dione], the results for the IC50 against HsCDK2/HsCYCA (lead structures), on EtCRK2/XlRINGO (setting [7]) and at EtCRK2/EtCYC3a (setting [9]) were 14400 ± 1520 nM, 14800 ± 8410 nM and 18100 ± 1030 nM, respectively. Moreover, the Ki on HsCDK2/HsCYCA (lead structures) came out at 3350 ± 1060 nM; on EtCRK2/XlRINGO (setting [8]), 5250 ± 200 nM; on EtCRK2/EtCYC3a (setting [10]), 6870 ± 1740 nM.

As to `CN1CC[C@H](c2c(O)cc(O)c3c(=O)cc(-c4ccccc4Cl)oc23)[C@H](O)C1` [Flavopiridole, 2-(2-chlorophenyl)-5,7-dihydroxy-8-[(3S,4R)-3-hydroxy-1-methyl-4-piperidinyl]-4H-1-benzopyran-4-one], the “inhibition of E. tenella schizont development” value in series [2] (at concentrations of 150 and 300 nM) was “fully inhibits”; in series [2] (concentrations below 80 nm), “no inhibitory effects”. Besides, the IC50 in the series on EtCRK2 (read-out: IC50 EtCRK2 in enzyme assays) is 33 ± 10 nM. In addition, at EtCRK2 (read-out: Ki EtCRK2 in enzyme assays), the Ki was 11 ± 3 nM. Also, the “concentrations at which host cell toxicity is observed” value with host cell is recorded as “above 600 nM”.

Consider `OC(CSc1ccccc1)CN1CCC(Nc2nccc(C(F)(F)F)n2)CC1` (centres unmarked) [BES124764, 1-phenylsulfanyl-3-[4-[[4-(trifluoromethyl)pyrimidin-2-yl]amino]-1-piperidyl]propane-2-ol], for which the “times more active towards the two E. tenella complexes than towards the HsCDK2/HsCYCA complex” value at HsCDK2/HsCYCA (EtCRK2/XlRINGO and EtCRK2/EtCYC3a versus HsCDK2/HsCYCA) is 25–30 times. For the same compound, the IC50 against HsCDK2/HsCYCA (lead structures) is over 200000 nM; on EtCRK2/XlRINGO (setting [7]), 18600 ± 3720 nM; on EtCRK2/EtCYC3a (setting [9]) it was 7350 ± 1820 nM. Further, the Ki stood at 95300 ± 19100 nM at HsCDK2/HsCYCA (lead structures), 4330 ± 920 nM at EtCRK2/XlRINGO (setting [8]) and 3420 ± 1080 nM at EtCRK2/EtCYC3a (setting [10]). The “selectivity for EtCRK2 versus HsCDK2” value at HsCDK2/HsCYCA (result in words) is “selective for EtCRK2”.

For the compound `NC1=NC(=O)/C(=C2\CCNC(=O)c3[nH]c(Br)cc32)N1` [10-Z-Hymendialdisine, (4Z)-4-(2-amino-4-oxo-1H-imidazol-5-ylidene)-2-bromo-1,5,6,7-tetrahydropyrrolo[2,3-c]azepin-8-one], the IC50 came out at 120 ± 20 nM against HsCDK2/HsCYCA (standard CDK inhibitors), 440 ± 80 nM at EtCRK2/XlRINGO (setting [3]) and 930 ± 40 nM against EtCRK2/EtCYC3a. The Ki was 30 ± 1 nM on HsCDK2/HsCYCA (standard CDK inhibitors), 50 ± 20 nM on EtCRK2/XlRINGO (setting [4]) and 190 ± 10 nM on EtCRK2/EtCYC3a.

As for `CN[C@@H]1C[C@H]2O[C@@](C)([C@@H]1OC)n1c3ccccc3c3c4c(c5c6ccccc6n2c5c31)C(=O)NC4` [Staurosporine, (9S,10R,11R,13R)-2,3,10,11,12,13-hexahydro-10-methoxy-9-methyl-11-(methylamino)-9,13-epoxy-1H,9H-diindolo[1,2,3-gh:3′,2′,1′-lm]pyrrolo[3,4-j][1,7]benzodiazonin-1-one], the values for the IC50 at EtCRK2/XlRINGO and against EtCRK2/EtCYC3a were 90 ± 10 nM and 190 ± 90 nM, respectively. The Ki on EtCRK2/XlRINGO was determined as 20 ± 10 nM; on EtCRK2/EtCYC3a, 530 ± 200 nM.

For the compound `Nc1cc(S(=O)(=O)O)c2cccnc2c1O` [BES312351, 7-amino-8-hydroxy-quinoline-5-sulfonic acid hydrate], the IC50 was found to be 5160 ± 2850 nM against HsCDK2/HsCYCA (lead structures), 7130 ± 2490 nM at EtCRK2/XlRINGO (setting [7]) and 6500 ± 2490 nM against EtCRK2/EtCYC3a. The Ki amounted to 780 ± 610 nM at HsCDK2/HsCYCA (lead structures), 940 ± 310 nM on EtCRK2/XlRINGO (setting [8]) and 4670 ± 2020 nM at EtCRK2/EtCYC3a.
